Source: US20120015953A1, “METHODS AND COMPOSITIONS FOR THE TREATMENT OF ALLERGY” (priority 2010, published 2012)

How the values were obtained:
[1] = system: passively sensitized guinea pigs; test: acute phase clinical score of conjunctivitis, passively sensitized guinea pigs challenged with ovalbumin; assay type: in vivo, guinea pig; settings: for effect on olopatadine's inhibition of the acute clinical score: H4 antagonist topical once daily, 0.2% olopatadine 5 minutes later, antigen challenge 60 minutes after dose, scored 30 min after challenge (FIGS. 1, 4); for effect on olopatadine's acute phase effects under different dosing regimens: administered before, after, or in the same drop as 0.2% olopatadine (FIGS. 3, 6); for effect on acute phase clinical score on their own: compound alone, topical, 1 hour prior to challenge
Description: (§1) H1 and H4 antagonists were evaluated using an in vivo assay to determine the effect of the H4 antagonist on a co-administered H1 antagonist. Male Hartley VAF outbred guinea pigs were passively sensitized to ovalbumin by a single OD subconjunctival injection of undiluted guinea pig anti-ovalbumin antiserum 24 hours before OD topical challenge with 500 μg ovalbumin in saline. Control animals were injected with saline only and challenged with ovalbumin. To determine acute phase drug efficacy, 30 min after challenge animals were clinically scored by a masked observer for severity of signs of conjunctivitis based on a standard scale.
(§2) Test compounds were administered topically 1 hour prior to challenge. Twenty-four hours after challenge, animals were euthanized and conjunctivae were harvested for determination of tissue eosinophil peroxidase (EPO) concentration as a marker of allergic inflammation and late phase effects. Homogenates of freshly collected tissues were prepared by shaking the tissues in 2 mL round-bottom tubes containing 0.5 mL of homogenization buffer (50 mM Tris HCl, pH 8.0, 6 mM KBr) and one 5-mm stainless steel bead on a Qiagen TissueLyser at 30 Hz for 5 min. Homogenates were frozen and thawed once, then centrifuged at 10,000 rpm for 5 min. EPO activity in supernatants was measured by reacting diluted homogenates with a solution of 6 mM o-phenylenediamine substrate and 8.8 mM H2O2 in homogenization buffer for 3 min. The reaction was stopped with 4M H2SO4 and absorbances were measured at […] on a spectrophotometry plate reader. Total EPO in samples was calculated from a standard curve of recombinant human EPO in each assay. EPO activity was normalized to total protein concentration (Pierce BCA assay) in supernatants. Background EPO activity was determined from the unsensitized, antigen-challenged control group. Percent inhibition was calculated from the sensitized, antigen-challenged, vehicle-treated control group in each experiment. Ovalbumin-injected animals dosed topically with 0.1% w/v dexamethasone (dex) served as positive control. Groups were compared by ANOVA with Dunnett's or Tukey's post-hoc tests where appropriate with significance assigned at the 95% confidence level.

[2] = system: tissue eosinophil peroxidase (EPO); test: late phase allergic response, conjunctival tissue eosinophil peroxidase (EPO) 24 h after challenge; assay type: in vivo, guinea pig; settings: for inhibition of late phase allergic response: compound alone, EPO 24 hours after challenge (FIGS. 2, 5); for inhibition of late phase response with concomitant olopatadine: concomitant dosing with 0.2% olopatadine (FIGS. 2, 5)
Description: as §1, §2

For `Clc1ccc2nc(N3CCNCC3)c3nnnn3c2c1` [Compound 2, 8-chloro-4-(piperazin-1-yl)tetrazolo[1,5-a]quinoxaline], the “effect on olopatadine's inhibition of the acute clinical score” value [1] was “does not show suppression of olopatadine's acute phase effects”, the “effect on olopatadine's acute phase effects under different dosing regimens” value [1] was “These effects on acute phase response are not seen” and the “effect on acute phase clinical score on their own” value [1] was “Neither Compound 1 nor Compound 2 demonstrate any effect on acute phase clinical score on their own”. For the same molecule, the “inhibition of late phase allergic response” value [2] was “very good inhibitors of late phase allergic response” and the “inhibition of late phase response with concomitant olopatadine” value [2] was “slight increase in the inhibition of late phase response”.

For `CN1CCN(c2nc3ccc(C(F)(F)F)cc3n3cnnc23)CC1` [Compound 1, 4-(4-methylpiperazin-1-yl)-8-(trifluoromethyl)-[1,2,4]triazolo[4,3-a]quinoxaline], the “effect on olopatadine's inhibition of the acute clinical score” value [1] was “dose dependent effect on the inhibition of the acute clinical score relative to olopatadine alone”, the “effect on olopatadine's acute phase effects under different dosing regimens” value [1] was “reduction of olopatadine's acute phase effects and dose dependency” and the “effect on acute phase clinical score on their own” value [1] was “Neither Compound 1 nor Compound 2 demonstrate any effect on acute phase clinical score on their own”. For the same molecule, the “inhibition of late phase allergic response” value [2] was “very good inhibitors of late phase allergic response” and the “inhibition of late phase response with concomitant olopatadine” value [2] was “slight increase in the inhibition of late phase response”.
